Laboratory results: patent publication US20210244028A1, “TREATMENT FOR REMOVING ECTOPARASITES FROM FISH” (priority 2018, published 2021)
Where “and” joins values, the source holds several entries; their conditions need not be identical. Equal values may be shown once.

Columns and labels:
[1] = test system: azamethiphos- and deltamethrin-resistant sea lice; experiment: In vitro bath exposure of isolated sea lice (Example 6); conditions: 30 minutes exposure, registered approx. 20 h after end of exposure
Method: A trial was performed to ensure there was no cross-resistance between azamethiphos- and deltamethrin-resistant sea lice and neonicotinoids. Both pre-adult and adult stages (mobile stages) of both sexes were used, and they were equally distributed among groups. The sea lice were exposed to imidacloprid for 60 minutes, azamethiphos for 60 minutes and deltamethrin for 30 minutes in one litre baths at a range of concentrations (Tables 6, 7 and 8). The sea lice were transferred to clean aerated seawater after treatment. The temperature of the seawater during the experiment was 12° C., but during exposure the temperature raised to approx. 14° C. in regimes exposed for 60 min. (imidacloprid and azamethiphos) and to 13° C. for the regime exposed in 30 minutes (deltamethrin).
The numbers of live and immobilised (including killed) lice in each regime were registered approximately 20 h after end of exposure. Each louse was individually investigated.

Salmon lice = experiment: Bath treatment of lice-infected Atlantic salmon, percent lice removed (Example 7); format: in vivo; conditions: 0.2 μl/l, 30 minutes, duplicate, 3 fish per test
Method: To determine the concentration- and time-dependence of imidacloprid treatment in vivo, Atlantic salmon (average of 320.9 g) were challenged with imidacloprid in seawater ([…] salinity) at 12° C. The water level in the tank was lowered and aeration was employed during administration of the active. The salmon louse copepodid culture was counted and adjusted to obtain a target level of around 40 copepodids per fish in the challenge tank at each challenge time point.
Salmon lice on the fish were counted using standard methods. Only lice on the fish's outer surface, not including gills and oral/buccal cavities, were investigated.
Numbers of dissociated lice in tank water or attached to the tank walls were recorded. Lice in the tank water were collected and assessed for ability to attach by suction to a smooth plastic surface immediately after treatment and again after 30-60 minutes (to assess possible revival). […]
To terminate the treatment, the inner compartment with treated fish was lifted to the surface and drained, then fish were transferred directly and without water to a second basin with a lethal overdose of anaesthetic and left until dead. All lice remaining on these fish and lice that fell off in the anaesthetic bath were recorded. […]

In the case of `CC1(C)[C@H](C(=O)O[C@H](C#N)c2cccc(Oc3ccccc3)c2)[C@@H]1C=C(Br)Br` [deltamethrin], the “% effect” value ([1]; 5 ppm) is reported as 0%, the Immobilised ([1]; 5 ppm) is reported as 0 and the Live ([1]; 5 ppm) is reported as 10. The Live ([1]; 10 ppm) was 9 and 10, the “% effect” value ([1]; 15 ppm) was 20% and 10% and the Immobilised ([1]; 15 ppm) was 2 and 1. The Live ([1]; 15 ppm) was 8 and 9, the “% effect” value ([1]; 20 ppm) was 20% and 10% and the Immobilised ([1]; 20 ppm) was 2 and 1. The Live ([1]; 20 ppm) was 8 and 9, the Immobilised ([1]; 30 ppm) was 1 and 2 and the Live ([1]; 30 ppm) was 10 and 8. The “% Removal” value (Salmon lice) was 0^37%.
